Data published in patent US20120100135A1, “GENETIC POLYMORPHISMS ASSOCIATED WITH CLINICAL OUTCOMES OF TOPOISOMERASE INHIBITOR THERAPY FOR CANCER” (University of Southern California, priority 2009, published 2012).

Test system: mCRC patients
Assay: Phase III EPIC trial subgroup (US sites, 186 genotyped patients): IR/CB (arm A) vs IR alone (arm B), second line after failure of FOLFOX
Type: in vivo, human
Protocol: This study was to test functional germline polymorphisms involved in the EGFR—(EGF, EGFR), angiogenesis—(VEGF, IL-8, CXCR-2)—and drug-metabolism related genes (UGT1A1, MTHFR) for their potential role as molecular predictors for clinical outcome in patients treated with CB/IR vs. IR alone.
Material and Methods: DNA was extracted from all available formalin-fixed paraffin-embedded tumor samples from the phase III EPIC trial (US sites only). Genotyping was performed using PCR-RFLP assays and 5′-end [g-33P] ATP′ labeled PCR-protocols.
Results: 186 patients were treated either with IR/CB (arm A, 84 patients) or IR (arm B, 102 patients) only. […] It was found an EGFR-CA-repeat in intron I in arm A was associated with PFS (p=0.031, log-rank test) (Table 2). In arm A, a significant association with […] (RR) (p=0.0103, Fisher's exact test) for MTHFR 1298 was found (Table 3). […] Furthermore, MTHFR 677 and MTHFR 1298 was associated with OS (adjusted p=0.028 and 0.026, respectively, Cox-proportional hazards models), independent from K-ras mutation status, race and number of disease sites.

## CCc1c2c(nc3ccc(OC(=O)N4CCC(N5CCCCC5)CC4)cc13)-c1cc3c(c(=O)n1C2)COC(=O)[C@]3(O)CC [IR, Irinotecan]
95% CI
  Median PFS: 2.7 months
  median overall survival (OS): 12.3 months
Arm A n=84, arm B n=102
  patients showing CR or PR: 6%
  patients with SD or PD: 94%
